Test system: Mycobacterium tuberculosis H37Rv growth inhibition, no glycerol
Experiment: Confirmatory growth inhibition assay, Mycobacterium tuberculosis H37Rv, absence of glycerol (AID 449764);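 also: growth read after 7 days of incubation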
Conditions: for IC90: measured here: IC90 growth inhibition

| Structure (SMILES) | IC50 [µM] | IC90 [µM] |
| --- | --- | --- |
| c1ccc(-c2c3ccccc3nc3[nH]c4ccccc4c23)cc1 | 96.3 | > 100 |
| CCc1c(C)sc(NC(=S)N2CCN(CC)CC2)c1C(=O)OC | 13.3 | > 25 |
| COc1ccc(SN=C2C(C)=CC(=O)C=C2C)cc1 | 22.4 | 24.9 |
| Cc1ccc(OCc2cc(C(=O)N(C)Cc3cnc4ccccn34)no2)cc1C | 35.1 | > 100 |
| CCc1ccc(NC(=S)/N=C(\N)Nc2nc(C)c3cc(CC)ccc3n2)cc1 | 10.9 | 21.1 |
| CC(C)(C)c1ccc(OCCC(=O)OCC(=O)NC(=O)NC2CCCC2)cc1 | 11.8 | 18.9 |
| O=[N+]([O-])c1ccc(C2CC(c3ccccc3)=Nc3ccccc3S2)cc1 (stereo unspecified) | 6.28 | 7.31 |
| Cn1cc(NC(=O)CCl)cn1 | 8.55 | 16.1 |
| Cc1ccc(NC(=O)C2=C(O)CCn3c2nc2ccccc23)cc1 | 13.5 | > 100 |
| CCc1ccc(/C(C)=N/Nc2cc(Cl)nc(C)n2)cc1 | 34.1 | 59.5 |
| Cn1c2ccccc2c2cc(C(=O)NNC(=O)CCl)sc21 | 4.41 | 8.11 |
| Cc1cc(C2N=C(N)Nc3nc4ccccc4n32)c(C)n1-c1ccccc1Cl (stereo unspecified) | 17.3 | 21.4 |
| CCOC(=O)c1sc2nc3n(c(=O)c2c1C)CCC(C)CC3 (stereo unspecified) | 23 | 26.4 |
| CN(Cc1ccco1)c1ncnc2ccc(-c3ccc4c(ccn4C)c3)cc12 | 40.9 | 59.4 |
| CCOC(=O)/C(=N/Nc1ccccc1)c1csc(Nc2ccccc2)n1 | 41.6 | > 100 |
| O=C(CN1CCN(C(=O)COc2cccc(F)c2)CC1)Nc1ccc(Cl)c(C(F)(F)F)c1 | 50.4 | 57.4 |
| O=C(O)c1[nH]c(=O)[nH]c(=O)c1F | 5.47 | 14.1 |
| CC1CCCC(C)N1C(=O)COC(=O)c1cc(-c2cccs2)nn1-c1ccccc1 (stereo unspecified) | 62.2 | 86.3 |
| Cn1nc(-c2ccccn2)nc2c(=O)n(C)c(=O)nc1-2 | 12.5 | 13 |
| CSCCC(=O)N1CCCC(CNC(=O)c2ccc(-c3ccccc3)cc2)C1 (stereo unspecified) | 41.5 | 70.6 |
| COc1ccc(-c2ccc(-c3noc(C(C)C)n3)c(OC)n2)cc1 | 40.3 | 54.6 |
| Cn1nnnc1Sc1ncnc2scc(-c3cc4ccccc4o3)c12 | 5.11 | 12.1 |

| Structure (SMILES) | IC50 [µM] | IC90 [µM] |
| --- | --- | --- |
| O=C(C1CC1)N1CCCC(c2ccc(Cl)cc2)=N1 | 42.3 | 63.5 |
| CN1CCN(c2c(F)cc3c(=O)c(C(=O)O)cn4c3c2OCN4C)CC1 | 0.72 | 0.93 |
| Cc1ccc(-n2cc(CNCCn3nc(C)cc3C)c(-c3ccc(F)cc3)n2)cc1 | 8.2 | 13.5 |
| CC(C)Cn1c([N+](=O)[O-])nc2c1c(=O)[nH]c(=O)n2C | 9.69 | 14.5 |
| O=C(Nc1nc2ccccc2[nH]1)C12CC3CC(CC(C3)C1)C2 | 13.5 | > 100 |
| Oc1ccc(-[n+]2c(-c3ccccc3)cc(-c3ccccc3)cc2-c2ccccc2)cc1 | 14.3 | 17.2 |
| COC(=O)[C@@H](NC(=O)O[C@@H]1C(=O)c2ccc(OC)cc2O[C@H]1c1cccc(C(F)(F)F)c1)C(C)C |  | > 100 |
| O=C(Nc1nc2ccc(SC(F)F)cc2s1)c1ccc(NS(=O)(=O)c2ccc(F)c(F)c2)cc1 | 11.9 | 18.9 |
| S=C(Nc1ccc(Nc2ccccc2)cc1)Nc1ccccn1 | 48.6 | > 50 |
| CCc1ccc2[nH]c(=O)c(CN(CCCN3CCOCC3)C(=O)Nc3cccc(Cl)c3)cc2c1 | 33.7 | 40.5 |
| Cc1ccsc1/C=C1\SC(N2CCOCC2)=NC1=O | 23.4 | 27 |
| Cc1ccc(O)c(C(=O)CC(=O)c2ccccc2Cl)c1 | 17.9 | 27.3 |
| O=C(NC1CCN(C(=O)N2c3ccccc3Sc3ccccc32)CC1)c1ccccc1F |  | > 100 |
| Fc1ccc(C[n+]2c(-c3ccccc3)cc(-c3ccccc3)cc2-c2ccccc2)cc1 | 32.8 | 43.9 |
| COC(=O)C1C(O)C(C)C(O)C(C)/C=C\C=C(/C)C(=O)Nc2c(C)c(OC(C)=O)c3c(c2O)C(=O)C(C)=C2OCOC(=C23)/C(C)=C/C(C)(O)C(O)C(C)C1O (stereo unspecified) | < 0.2 | < 0.2 |
| COc1ccc(Nc2nc(N)c([N+](=O)[O-])c(NC3CCCCC3)n2)cc1 | 18.3 | 26.3 |
| O=C(CCl)Nc1cccn2ncnc12 | 3.32 | 7.56 |
| Cc1ccnc(Sc2ccc([N+](=O)[O-])cc2[N+](=O)[O-])n1 | 19.8 | 29.7 |
| CCN=c1scc(-c2ccco2)n1/N=C/c1ccc(OC)c(O)c1 | 23.2 | 35.1 |
| CCOC(=O)COc1ccc(/C=C2\NC(=S)N(CC)C2=O)cc1 | 3.1 | 3.44 |
| CCOc1ccc(/C=N/Nc2ccc(Cl)nn2)c(O)c1 | 5.87 | 6.71 |
| O=C(/C=C/c1ccc([N+](=O)[O-])cc1)NC1CC2CCC1C2 (stereo unspecified) | 68.7 | > 100 |

Source: PubChem BioAssay AID449764 (Southern Research Specialized Biocontainment Screening …, 2010)
